Reference: US6632806B1, “Neurologically-active compounds” (The University of Sydney, priority 1997, dated 2003)
“And” between values parts separate entries of the source, which are not always exact repeats. Identical values can stand only once. Like-named read-outs stand apart in the source and are kept apart here. Marks after values point to notes of the source that are not given here.

Legend:
[1] = system: T1, GABAA; details: [3H]muscimol binding (Froestl et al, 1995a; 1995b), cited from earlier work; for IC50: read-out: GABAA receptor affinity, IC50
T1 construct: Activity at GABAA; other: Woodward et al, 1993; GABAA Kb; other: Ragozzino et al (1996); other: PMPA; source not given, column fo

[2] = target: human r1 receptors (GABAC receptors) (Homo sapiens, UniProt P24046); experiment: Two-electrode voltage clamp recording of human r1 GABAC receptors expressed in Xenopus oocytes; details: for Activation of the receptor by compound alone / Effect on GABA response when co-applied with GABA (1 μM): FIG. 1; for IC50: IC50 (concentration that inhibits 50% of the response produced by 1 μM GABA), 1 μM GABA; for Mode of antagonism: Schild analysis; for Effect as agonist or antagonist at GABAC receptors: screened at 100 μM; for EC50: r1 receptors in Xenopus oocytes, clamped at −60 mV
Procedure: The plasmid was linearized with XbaI and cRNA made using the “Message Machine” kit from Ambion Inc. (Austin, Tex., USA). 50 ng of cRNA was injected into defolliculated Stage V Xenopus oocytes. Two to seven days later, receptor activity was measured by two-electrode voltage clamp recording, using a Geneclamp 500 amplifier (Axon Instruments Inc., Foster City, Calif., USA) and a MacLab 2e recorder (ADInstruments, Sydney, NSW, Australia). […] For receptor activation measurements, the indicated concentrations of agonist and antagonist were added to ND96.

[3] = target: GABAB (Rattus norvegicus, UniProt Q9Z0U4); set-up: from tissue; host or cells: rat cortical membranes / neocortical slices; values largely from the literature; details: [3H]CGP27492 binding (Froestl et al; Bittiger et al; Olpe et al); read-out: GABAB receptor affinity, IC50; cited from earlier work
[4] = target: GABAC receptors; details: Woodward et al, 1993, cited from earlier work; for Kb: read-out: KB (antagonist); for Kd: Johnston, 1996b, read-out: KD (agonist)
[5] = system: GABAA; details: cited from earlier work
[6] = system: NMDA, benzodiazepine, quisqualate, kainate, muscarinic cholinergic, adrenergic, serotoninergic and histaminergic receptors; details: 1 mM; cited from earlier work
[7] = system: T1, GABAA; details: Na-independent [3H]GABA binding (Johnston et al, 1978); read-out: GABAA receptor affinity, IC50; cited from earlier work
[8] = target: T2, GABAC (human r1) (Homo sapiens, UniProt P24046); details: data from Murata et al, 1996; cited from earlier work
T2 construct: host or cells: Xenopus oocytes expressing human r1 mRNA
T2 sequence (P24046 22-479): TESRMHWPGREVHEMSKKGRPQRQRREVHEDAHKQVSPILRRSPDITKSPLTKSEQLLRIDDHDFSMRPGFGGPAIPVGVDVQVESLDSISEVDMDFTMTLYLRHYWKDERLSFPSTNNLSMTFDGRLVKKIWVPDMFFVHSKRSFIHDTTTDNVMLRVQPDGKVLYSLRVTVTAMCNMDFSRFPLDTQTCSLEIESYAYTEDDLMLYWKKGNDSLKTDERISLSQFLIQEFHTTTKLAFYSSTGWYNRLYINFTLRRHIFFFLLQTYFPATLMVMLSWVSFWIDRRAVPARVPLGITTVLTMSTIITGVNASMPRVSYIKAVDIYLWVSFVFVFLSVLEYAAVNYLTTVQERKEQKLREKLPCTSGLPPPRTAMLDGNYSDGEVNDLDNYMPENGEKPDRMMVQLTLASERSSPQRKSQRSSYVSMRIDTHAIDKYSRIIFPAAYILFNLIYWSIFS

human r1 receptors (GABAC receptors), sequence (P24046 22-479): as above
GABAB, sequence (Q9Z0U4 17-960 limits assumed): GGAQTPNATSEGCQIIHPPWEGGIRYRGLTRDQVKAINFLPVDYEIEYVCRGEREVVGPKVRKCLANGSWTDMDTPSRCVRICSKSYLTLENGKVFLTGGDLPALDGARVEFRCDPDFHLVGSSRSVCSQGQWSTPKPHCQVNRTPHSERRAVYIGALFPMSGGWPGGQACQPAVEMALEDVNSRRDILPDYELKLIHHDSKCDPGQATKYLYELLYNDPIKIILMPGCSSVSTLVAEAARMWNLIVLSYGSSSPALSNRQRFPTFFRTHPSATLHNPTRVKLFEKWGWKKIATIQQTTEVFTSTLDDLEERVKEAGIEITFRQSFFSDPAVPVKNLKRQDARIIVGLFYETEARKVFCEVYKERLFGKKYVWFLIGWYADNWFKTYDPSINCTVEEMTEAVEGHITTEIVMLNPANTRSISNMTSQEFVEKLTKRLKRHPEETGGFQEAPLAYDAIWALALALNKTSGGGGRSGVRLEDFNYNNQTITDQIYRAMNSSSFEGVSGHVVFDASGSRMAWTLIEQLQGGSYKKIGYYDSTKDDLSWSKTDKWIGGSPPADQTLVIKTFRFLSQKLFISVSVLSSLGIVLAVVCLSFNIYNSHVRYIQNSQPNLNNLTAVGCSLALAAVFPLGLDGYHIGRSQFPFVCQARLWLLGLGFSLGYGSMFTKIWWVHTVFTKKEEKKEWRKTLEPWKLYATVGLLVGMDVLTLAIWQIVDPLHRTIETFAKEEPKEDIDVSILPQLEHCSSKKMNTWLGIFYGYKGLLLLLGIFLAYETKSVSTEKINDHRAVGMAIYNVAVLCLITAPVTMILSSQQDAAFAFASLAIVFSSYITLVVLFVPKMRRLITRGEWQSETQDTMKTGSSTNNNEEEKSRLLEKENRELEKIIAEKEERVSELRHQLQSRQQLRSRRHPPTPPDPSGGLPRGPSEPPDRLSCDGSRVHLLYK
GABAB, sequence (O88871 41-940 partner): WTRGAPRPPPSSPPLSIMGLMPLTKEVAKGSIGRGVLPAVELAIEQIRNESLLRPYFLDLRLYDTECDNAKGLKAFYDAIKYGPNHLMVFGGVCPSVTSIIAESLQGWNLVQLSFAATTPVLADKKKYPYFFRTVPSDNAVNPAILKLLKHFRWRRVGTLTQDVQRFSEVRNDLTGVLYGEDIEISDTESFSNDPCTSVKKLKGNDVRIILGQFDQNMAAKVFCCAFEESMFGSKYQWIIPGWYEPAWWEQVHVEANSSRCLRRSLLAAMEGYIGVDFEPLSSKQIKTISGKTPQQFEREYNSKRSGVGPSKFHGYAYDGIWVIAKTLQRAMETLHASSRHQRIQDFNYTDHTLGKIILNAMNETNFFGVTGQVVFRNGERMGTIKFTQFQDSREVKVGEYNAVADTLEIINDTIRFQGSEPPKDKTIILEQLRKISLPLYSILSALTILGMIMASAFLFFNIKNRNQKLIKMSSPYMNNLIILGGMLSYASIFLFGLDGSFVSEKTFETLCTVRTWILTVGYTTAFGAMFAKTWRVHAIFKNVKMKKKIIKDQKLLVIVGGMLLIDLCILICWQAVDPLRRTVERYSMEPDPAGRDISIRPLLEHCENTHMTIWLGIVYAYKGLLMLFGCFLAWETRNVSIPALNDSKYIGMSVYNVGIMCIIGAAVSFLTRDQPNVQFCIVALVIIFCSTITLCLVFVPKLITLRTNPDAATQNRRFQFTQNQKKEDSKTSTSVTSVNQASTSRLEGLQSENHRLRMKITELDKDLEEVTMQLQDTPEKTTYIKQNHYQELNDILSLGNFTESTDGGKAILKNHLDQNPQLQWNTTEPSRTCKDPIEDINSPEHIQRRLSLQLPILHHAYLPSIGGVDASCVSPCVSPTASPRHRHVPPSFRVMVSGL

NC/C=C\[PH](=O)O [CGP70522, [(Z)-3-aminopropen-1-yl]phosphinic acid]
IC50 [1]: 6.6 µM
Activation of Cl− channel current by compound on its own [2]: did not activate any current on their own
Activation of the receptor by compound alone ([2]; 300 μM): do not activate the receptor
Effect on GABA response when co-applied with GABA (1 μM) ([2]; 300 μM): the GABA response is blocked or reduced
IC50 [2]: > 300 µM
Mode of antagonism [2]: competitive antagonists

CP(=O)(O)/C=C/CN [CGP44530, [(E)-3-Aminopropen-1-yl]methylphosphinic acid]
GABAA receptor affinity, IC50 [1]: inactive at 100
Activation of Cl− channel current by compound on its own [2]: did not activate any current on their own
Kb [2]: 8.6 ± 1.6 µM
Slope of Schild Plot [2]: 1.01
nH (Hill Coefficient) [2]: 2.4 ± 0.5
Activation of the receptor by compound alone ([2]; 100 μM): do not activate the receptor
Effect on GABA response when co-applied with GABA (1 μM) ([2]; 100 μM): the GABA response is blocked or reduced
IC50 [2]: 5.5 µM and 5.53 µM
Mode of antagonism [2]: competitive antagonists
nH of GABA curve in the presence of antagonist ([2]; [Antagonist] 10 μM): 2.6 ± 0.2
nH of GABA curve in the presence of antagonist ([2]; [Antagonist] 30 μM): 3.0 ± 0.1
nH of GABA curve in the presence of antagonist ([2]; [Antagonist] 100 μM): 3.7 ± 0.4
IC50 [3]: 0.65 µM

NCCC[PH](=O)O [CGP27492, 3-aminopropylphosphinic acid]
IC50 [1]: 1.7 µM
Kb [4]: 1800 nM
Activation of Cl− channel current by compound on its own [2]: did not activate any current on their own
Kb [2]: 3.2 ± 1 µM
Slope of Schild Plot [2]: 0.99
nH (Hill Coefficient) [2]: 1.9 ± 0.2
IC50 [2]: 2.47 ± 0.04 µM
Mode of antagonism [2]: competitive antagonists
nH of GABA curve in the presence of antagonist ([2]; [Antagonist] 10 μM): 2.3 ± 0.1
nH of GABA curve in the presence of antagonist ([2]; [Antagonist] 30 μM): 2.4 ± 0.3
nH of GABA curve in the presence of antagonist ([2]; [Antagonist] 100 μM): 2.5 ± 0.2

NCCCP(=O)(O)O [3-APA, 3-aminopropylphosphonic acid]
Kb [4]: 10000 nM

CCCCP(=O)(O)CCCN [CGP36742, (3-aminopropyl)-n-butylphosphinic acid]
IC50 [5]: 500 µM
Effect at other receptor types [6]: no effect

C[C@H](NC[C@@H](O)CP(=O)(O)Cc1ccccc1)c1ccc(Cl)c(Cl)c1 [CGP55845A]
Effect as agonist or antagonist at GABAC receptors [2]: no effect as either agonists or antagonists

CP(=O)(O)CCCN [CGP35024, (3-aminopropyl)methylphosphinic acid]
GABAA receptor affinity, IC50 [1]: inactive at 10^k
Kb [4]: 800 nM
Activation of Cl− channel current by compound on its own [2]: did not activate any current on their own
Kb [2]: 0.58 ± 0.14 µM
Slope of Schild Plot [2]: 1.14
nH (Hill Coefficient) [2]: 1.8 ± 0.1
IC50 [2]: 0.75 ± 0.07 µM
Mode of antagonism [2]: competitive antagonists
nH of GABA curve in the presence of antagonist ([2]; [Antagonist] 3 μM): 2.3 ± 0.1
nH of GABA curve in the presence of antagonist ([2]; [Antagonist] 10 μM): 2.2 ± 0.2
nH of GABA curve in the presence of antagonist ([2]; [Antagonist] 30 μM): 1.9 ± 0.2

NC/C=C/C(=O)O [TACA, trans-4-aminocrotonic acid]
IC50 [7]: 140 nM
Kd [4]: 0.6 µM
Activation of Cl− channel current by compound on its own [2]: activated the Cl^− channel
nH (Hill Coefficient) [2]: 2.4 ± 0.2
Maximal dose current as % of the maximal GABA activated current [2]: 95%
EC50 ([2]; read-out: EC50 (effective dose that activates 50% of the maximal current)): 0.44 ± 0.02 µM

O=C(O)C1=CCNCC1 [Isoguvacine]
IC50 [7]: 1400 nM
EC50 [8]: 99 µM

NC/C=C\C(=O)O [CACA, cis-4-aminocrotonic acid]
IC50 [7]: 25000 nM
Kd [4]: 74 µM
Activation of Cl− channel current by compound on its own [2]: activated the Cl^− channel
nH (Hill Coefficient) [2]: 2.2 ± 0.3
EC50 ([2]; EC50 (effective dose that activates 50% of the maximal current)): 37.4 µM and 37 µM
Maximal dose current as % of the maximal GABA activated current [2]: 75%

NC/C=C/[PH](=O)O [CGP38593, [(E)-3-aminopropen-1-yl]phosphinic acid]
IC50 [1]: 6.8 µM
Activation of Cl− channel current by compound on its own [2]: did not activate any current on their own
Kb [2]: 15.5 ± 1.7 µM
Slope of Schild Plot [2]: 0.95
nH (Hill Coefficient) [2]: 1.8 ± 0.4
Activation of the receptor by compound alone ([2]; 100 μM): do not activate the receptor
Effect on GABA response when co-applied with GABA (1 μM) ([2]; 100 μM): the GABA response is blocked or reduced
IC50 [2]: 7.7 µM and 7.68 µM
Mode of antagonism [2]: competitive antagonists
nH of GABA curve in the presence of antagonist ([2]; [Antagonist] 30 μM): 2.7 ± 0.1
nH of GABA curve in the presence of antagonist ([2]; [Antagonist] 60 μM): 2.5 ± 0.4
nH of GABA curve in the presence of antagonist ([2]; [Antagonist] 100 μM): 3.0 ± 0.1

CP(=O)(O)/C=C\CN [CGP70523, [(Z)-3-aminopropen-1-yl]methylphosphinic acid]
IC50 [1]: 242 µM
Activation of Cl− channel current by compound on its own [2]: did not activate any current on their own
nH (Hill Coefficient) [2]: 1.6 ± 0.1
Activation of the receptor by compound alone ([2]; 100 μM): do not activate the receptor
Effect on GABA response when co-applied with GABA (1 μM) ([2]; 100 μM): the GABA response is blocked or reduced
IC50 [2]: 38.9 µM and 38 µM
Mode of antagonism [2]: competitive antagonists
IC50 [3]: 16 µM

CCOC(OCC)P(=O)(O)CCCN [CGP35348, 3-aminopropyl(diethoxymethyl)phosphinic acid]
Effect as agonist or antagonist at GABAC receptors [2]: no effect as either agonists or antagonists

NCCCC(=O)O [GABA, γ-Aminobutyric acid]
Activation of Cl− channel current by compound on its own [2]: activated the Cl^− channel
nH (Hill Coefficient) [2]: 2.6 ± 0.2

NC[C@H](O)CP(=O)(O)CC1CCCCC1 [CGP51176, (2S)-3-amino-2-hydroxypropyl(cyclohexylmethyl)phosphinic acid]
Effect as agonist or antagonist at GABAC receptors [2]: no effect as either agonists or antagonists

NCCCP(=O)(O)CC1CCCCC1 [CGP46381, 3-aminopropyl(cyclohexylmethyl)phosphinic acid]
Effect as agonist or antagonist at GABAC receptors [2]: no effect as either agonists or antagonists
